From ChEMBL document CHEMBL3217528, “Bicyclic imidazole-4-one derivatives: a new class of antagonists for the orphan G protein-coupled receptors GPR18 and GPR55” (Medchemcomm, 2014) come the findings set out here.

The target of assay [1] is T1, Cannabinoid receptor 2 (Homo sapiens, UniProt P34972). Description: Displacement of [3H]CP55,940 from human recombinant CB2 receptor expressed in HEK293 cells at 10 uM. The class given is cell-based. A general note: In a radioligand displacement assay an active substance lowers the binding of a labelled ligand.
T1 sequence (P34972 whole entry): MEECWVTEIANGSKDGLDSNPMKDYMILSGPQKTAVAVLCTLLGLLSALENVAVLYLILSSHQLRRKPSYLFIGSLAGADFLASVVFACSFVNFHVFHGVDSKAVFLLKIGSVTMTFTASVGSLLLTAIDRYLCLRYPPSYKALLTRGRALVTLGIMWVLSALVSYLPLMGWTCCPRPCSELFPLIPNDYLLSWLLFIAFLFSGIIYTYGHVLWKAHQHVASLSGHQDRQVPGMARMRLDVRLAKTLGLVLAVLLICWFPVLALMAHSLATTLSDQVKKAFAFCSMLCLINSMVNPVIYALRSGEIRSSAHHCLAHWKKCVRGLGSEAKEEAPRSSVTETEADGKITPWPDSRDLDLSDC
Assay [2] concerns the target T1, Cannabinoid receptor 2. Description: Displacement of [3H]CP55,940 from human recombinant CB2 receptor expressed in HEK293 cells. The class given is cell-based.
The target in assay [3] is T2, Cannabinoid receptor 1 (Homo sapiens, UniProt P21554). In words: Displacement of [3H]CP55,940 from human recombinant CB1 receptor expressed in CHO-K1 cells at 10 uM. The class given is cell-based.
T2 sequence (P21554 whole entry): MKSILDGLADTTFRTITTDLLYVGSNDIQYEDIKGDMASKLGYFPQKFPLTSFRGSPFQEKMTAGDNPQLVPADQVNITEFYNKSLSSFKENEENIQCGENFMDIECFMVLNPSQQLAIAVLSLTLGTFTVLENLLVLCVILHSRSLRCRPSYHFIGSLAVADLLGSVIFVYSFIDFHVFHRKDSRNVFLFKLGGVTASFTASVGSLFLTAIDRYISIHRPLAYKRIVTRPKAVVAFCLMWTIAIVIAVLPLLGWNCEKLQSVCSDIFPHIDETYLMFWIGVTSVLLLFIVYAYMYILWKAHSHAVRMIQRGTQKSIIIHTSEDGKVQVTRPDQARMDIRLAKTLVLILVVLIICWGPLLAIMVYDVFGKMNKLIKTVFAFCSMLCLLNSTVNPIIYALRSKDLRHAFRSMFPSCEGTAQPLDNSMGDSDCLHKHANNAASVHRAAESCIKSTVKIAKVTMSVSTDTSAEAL
Assay [4] has as its target T2, Cannabinoid receptor 1. Description: Displacement of [3H]CP55,940 from human recombinant CB1 receptor expressed in CHO-K1 cells. The class given is cell-based.
Assay [5] concerns the target T3, G-protein coupled receptor 55 (Homo sapiens, UniProt Q9Y2T6). In words: Antagonist activity against human GPR55 expressed in CHO cells assessed as reduction in LPI-induced beta-arrestin recruitment at 10 uM by beta-galactosidase enzyme fragment complementation method. The class given is cell-based. In general terms: Recruitment of arrestin is a read-out of receptor activation apart from second messengers.

Assay [6] addresses T3, G-protein coupled receptor 55. In words: Antagonist activity against human GPR55 expressed in CHO cells assessed as reduction in LPI-induced beta-arrestin recruitment by beta-galactosidase enzyme fragment complementation method. The format is cell-based.
The target in assay [7] is T4, N-arachidonyl glycine receptor (Homo sapiens) (UniProt Q14330).
T4 sequence (whole entry): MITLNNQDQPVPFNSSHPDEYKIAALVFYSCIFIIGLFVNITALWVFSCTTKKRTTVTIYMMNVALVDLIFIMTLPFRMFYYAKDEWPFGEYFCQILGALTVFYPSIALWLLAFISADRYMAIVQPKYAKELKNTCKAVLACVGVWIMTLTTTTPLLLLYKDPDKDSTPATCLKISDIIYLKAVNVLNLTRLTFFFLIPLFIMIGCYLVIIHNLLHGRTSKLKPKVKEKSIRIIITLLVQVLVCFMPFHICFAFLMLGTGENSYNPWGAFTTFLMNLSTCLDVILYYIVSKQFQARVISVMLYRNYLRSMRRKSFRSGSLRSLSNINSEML
Description: Antagonist activity against human GPR18 expressed in CHO cells assessed as reduction in delta9-THC-induced beta-arrestin recruitment at 10 uM by beta-galactosidase enzyme fragment complementation method. The class given is cell-based.

Assay [8] has as its target T5, N-arachidonyl glycine receptor (Homo sapiens, UniProt Q14330).
T5 sequence (Q14330 whole entry): T4 sequence (whole entry)
In words: Antagonist activity against human GPR18 expressed in CHO cells assessed as reduction in delta9-THC-induced beta-arrestin recruitment by beta-galactosidase enzyme fragment complementation method. The class given is cell-based.

In assay [9] the target is T3, G-protein coupled receptor 55. In words: Agonist activity at human GPR55 expressed in CHO cells assessed as induction of LPI-induced beta-arrestin recruitment by beta-galactosidase enzyme fragment complementation method relative to LPI. The format is cell-based. The arrangement: concentration or dose not given beside the values.
The target of assay [10] is T4, N-arachidonyl glycine receptor (Homo sapiens). Description: Agonist activity at human GPR18 expressed in CHO cells assessed as induction of beta-arrestin recruitment by beta-galactosidase enzyme fragment complementation method relative to delta9-THC. The format is cell-based. Set-up: concentration or dose not given beside the values.
In assay [11] the target is Cannabinoid receptor 1 (Rattus norvegicus) (UniProt P20272). In words: Displacement of [3H]CP55,940 from CB1 receptor in rat brain cortical membranes at 10 uM. The class given is cell membranes.
Sequence of Cannabinoid receptor 1 (Rattus norvegicus) (P20272 whole entry): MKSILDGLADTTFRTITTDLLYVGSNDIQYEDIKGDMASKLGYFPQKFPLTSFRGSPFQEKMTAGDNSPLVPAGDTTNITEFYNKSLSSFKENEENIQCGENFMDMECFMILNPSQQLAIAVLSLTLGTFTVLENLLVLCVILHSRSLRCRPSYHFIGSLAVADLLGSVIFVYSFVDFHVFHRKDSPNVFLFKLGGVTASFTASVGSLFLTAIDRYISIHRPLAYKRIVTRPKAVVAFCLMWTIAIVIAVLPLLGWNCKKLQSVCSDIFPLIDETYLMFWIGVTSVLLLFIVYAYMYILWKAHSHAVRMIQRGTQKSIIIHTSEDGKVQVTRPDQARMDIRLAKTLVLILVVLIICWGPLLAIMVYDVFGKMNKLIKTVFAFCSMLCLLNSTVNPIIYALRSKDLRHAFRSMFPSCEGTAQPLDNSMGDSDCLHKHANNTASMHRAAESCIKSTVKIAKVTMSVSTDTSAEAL
The target in assay [12] is Cannabinoid receptor 1 (Rattus norvegicus, UniProt P20272). Description: Displacement of [3H]CP55,940 from CB1 receptor in rat brain cortical membranes. The class given is cell membranes.
Sequence of Cannabinoid receptor 1 (Rattus norvegicus, UniProt P20272) (P20272 whole entry): as above

T3 sequence (Q9Y2T6 whole entry, the tested form may be a part): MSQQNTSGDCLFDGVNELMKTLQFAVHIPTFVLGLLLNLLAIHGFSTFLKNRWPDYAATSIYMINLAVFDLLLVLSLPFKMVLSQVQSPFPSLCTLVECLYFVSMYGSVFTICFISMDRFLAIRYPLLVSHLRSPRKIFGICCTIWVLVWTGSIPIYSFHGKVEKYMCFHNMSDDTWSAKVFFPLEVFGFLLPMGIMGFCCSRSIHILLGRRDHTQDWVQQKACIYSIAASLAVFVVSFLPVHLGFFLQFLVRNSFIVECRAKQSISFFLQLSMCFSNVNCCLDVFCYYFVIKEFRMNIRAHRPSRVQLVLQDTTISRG

Usually inhibition stands for the relative decrease from the control value, in per cent. For orientation: Ki means a dissociation constant, usually derived from enzyme kinetics or from competition with a known ligand. In general, IC50 refers to the concentration at which inhibition is half-maximal. For `CCCCC/C=C\C/C=C\C/C=C\C/C=C\CCCC(=O)NCC(=O)O` [ARACHIDONOYL GLYCINE], the inhibition in assay [1] turned out to be 36%; in assay [3], 43%; in assay [5], 6%; in assay [7], 0%. In addition, the Ki in assay [2] and in assay [4] was greater than 10 µM throughout. In addition, the IC50 in assay [6] and in [8] was greater than 10 µM each time.
As for `O=C1N=C2SCCCN2C1(c1ccccc1)c1ccccc1`, the results for the Activity in [9] and in [10] were 53% and 11%, respectively. Moreover, the inhibition in assay [11] stood at 4%; in assay [1], 9%; in assay [3], 13%; in assay [5], 2%; in assay [7], 0%. The Ki in assay [12], in assay [2] and in [4] was greater than 10 µM throughout. Further, the IC50 in [6] and in assay [8] was greater than 10 µM throughout.
With `O=C1/C(=C/c2ccc([N+](=O)[O-])cc2)N=C2SCCCN12`, the Activity was 39% in assay [9] and 0% in assay [10]. In addition, the inhibition in assay [11] was found to be 23%; in assay [1], 20%; in [3], 0%; in assay [5], 12%; in [7] it was 20%. Also, the Ki in [12], in assay [2] and in [4] was greater than 10 µM throughout. For the same molecule, the IC50 in assay [6] and in [8] was greater than 10 µM each time.
As for `CCOC(=O)COc1cccc(/C=C2\N=C3SCCCCN3C2=O)c1`, the Activity stood at 0% in assay [9] and 19% in [10]. Further, the inhibition came out at 27% in assay [11], 39% in assay [1], 4% in assay [5] and 22% in assay [7]. For the same molecule, the results for the Ki in assay [12], in assay [2] and in assay [4] were greater than 10 µM, greater than 10 µM and 4.78 µM, respectively. The IC50 in [6] and in assay [8] was greater than 10 µM throughout.
As for `CN(C)c1ccc(/C=C2\N=C3SCCCN3C2=O)cc1`, the Activity turned out to be 20% in [9] and 17% in [10]. The inhibition in [11] amounted to 6%; in assay [3], 29%; in [5], 13%; in [7] it was 13%. Further, the figures for the Ki in assay [12], in [2] and in assay [4] were greater than 10 µM, 16.6 µM and greater than 10 µM, respectively. In addition, the IC50 in [6] and in assay [8] was greater than 10 µM throughout.
As for `O=C1/C(=C/c2ccc(-c3ccccc3)cc2)N=C2SCCCCN12`, the Activity in assay [9] was found to be 30%; in [10], 6%. Besides, the inhibition in [11] is 0%; in assay [3] it was -5%; in assay [5], 0%; in [7], 37%. For the same molecule, the inhibition constant (Ki) in [12] is greater than 10 µM; in [2], 5.43 µM; in [4] it was greater than 10 µM. Besides, the IC50 in [6] and in [8] was greater than 10 µM in each case.
Regarding `O=C1/C(=C/c2c(Cl)cccc2Cl)N=C2SCCCN12`, the Activity stood at 15% in assay [9] and 12% in assay [10]. In addition, the inhibition in [1] was determined as 4%; in assay [3], 14%; in assay [5], 0%; in assay [7] it was 0%. Also, the Ki in assay [2] and in [4] was greater than 10 µM each time. Further, the IC50 in assay [6] and in assay [8] was greater than 10 µM each time.
For `COc1cccc(/C=C2\N=C3SCCCN3C2=O)c1OC`, the Activity in assay [9] was found to be 0%; in assay [10], 10%. The inhibition in assay [1] worked out at 15%; in assay [3] it was 18%; in assay [7] it was 10%. Further, the Ki in [2] and in assay [4] was greater than 10 µM throughout. For the same molecule, the IC50 is 16.4 µM in [6] and greater than 10 µM in [8].
For `O=C1/C(=C/c2ccccc2F)N=C2SCCCN12`, the Activity in assay [9] was found to be 0%; in [10] it was 6%. Also, the inhibition in [1] came out at 0%; in assay [3], 13%; in assay [7], 17%. Further, the Ki in assay [2] and in [4] was greater than 10 µM in each case. Also, the IC50 in assay [6] was 5.56 µM; in assay [8], greater than 10 µM.
Turning to `O=C1/C(=C/c2cccc(OCc3ccc(Cl)c(Cl)c3)c2)N=C2SCCCN12`, the Activity in assay [9] is 4%; in assay [10], 0%. Moreover, the Ki in assay [12], in assay [2] and in assay [4] was greater than 10 µM each time. Besides, the results for the inhibition in assay [1] and in assay [3] were 0% and 15%, respectively. Moreover, the IC50 amounted to 11.8 µM in assay [6] and 6.16 µM in assay [8].
Take `Cc1ccc(C(=O)Oc2cccc(/C=C3\N=C4SCCCCN4C3=O)c2)cc1`: the Activity was found to be 25% in assay [9] and 0% in assay [10]. Besides, the inhibition was found to be 4% in assay [11], 35% in assay [3] and 32% in assay [5]. The Ki was greater than 10 µM in [12], 2.58 µM in assay [2] and greater than 10 µM in assay [4]. The IC50 in assay [6] was greater than 10 µM; in [8] it was 6.45 µM.
For `O=C1N=C2SCCCN2/C1=C\C=C\c1ccccc1`, the Activity stood at 59% in assay [9] and 9% in assay [10]. Further, the Ki in assay [12], in assay [2] and in assay [4] was greater than 10 µM each time. Moreover, the inhibition in assay [1] was 19%; in [3], 26%; in [5], 0%; in assay [7], 2%. The IC50 in assay [6] and in assay [8] was greater than 10 µM each time.
In the case of `O=C(Oc1cccc(/C=C2\N=C3SCCCN3C2=O)c1)c1ccc(Cl)cc1`, the Activity was 31% in assay [9] and 0% in assay [10]. The inhibition in [11] amounted to 24%; in assay [1], 0%; in [3], 12%; in assay [5], 16%. The Ki in assay [12], in assay [2] and in [4] was greater than 10 µM in each case. Further, the values for the IC50 in assay [6] and in assay [8] were greater than 10 µM and 14.3 µM, respectively.
`O=C1/C(=C/c2ccc(Cl)cc2Cl)N=C2SCCCN12`: the Activity in assay [9] and in [10] was 0% each time. For the same molecule, the inhibition in assay [1] was determined as 24%; in assay [3], 8%; in assay [7], 14%. In addition, the Ki in [2] and in [4] was greater than 10 µM in each case. In addition, the IC50 was 6.76 µM in assay [6] and greater than 10 µM in assay [8].
Regarding `O=C1/C(=C/c2cccc(OCc3ccccc3Cl)c2)N=C2SCCCN12`, the Activity in [9] was 10%; in assay [10] it was 8%. For the same molecule, the inhibition in assay [1] amounted to 9%; in assay [3] it was 0%; in [5], 45%. Besides, the Ki in assay [2] and in assay [4] was greater than 10 µM in each case. Also, the IC50 was no less than 10 µM in assay [6] and 1.65 µM in assay [8].
Regarding `O=C1N2CCSC2=NC1(c1ccccc1)c1ccccc1`, the Activity in [9] stood at 50%; in assay [10], 12%. Further, the inhibition amounted to 15% in assay [11], 3% in assay [1], 39% in assay [5] and 12% in assay [7]. The inhibition constant (Ki) in [12] was greater than 10 µM; in assay [2] it was greater than 10 µM; in [4] it was 21.1 µM. The half-inhibitory concentration (IC50) in [6] and in assay [8] was greater than 10 µM throughout.
